Consider 5 compounds from patent US4027038A, “Complement inhibitors” (priority 1976, dated 1977).

One experiment concerns the target T1, activated human C1 (Homo sapiens, UniProt P09871).
T1 sequence (P09871 438-688 limits assumed): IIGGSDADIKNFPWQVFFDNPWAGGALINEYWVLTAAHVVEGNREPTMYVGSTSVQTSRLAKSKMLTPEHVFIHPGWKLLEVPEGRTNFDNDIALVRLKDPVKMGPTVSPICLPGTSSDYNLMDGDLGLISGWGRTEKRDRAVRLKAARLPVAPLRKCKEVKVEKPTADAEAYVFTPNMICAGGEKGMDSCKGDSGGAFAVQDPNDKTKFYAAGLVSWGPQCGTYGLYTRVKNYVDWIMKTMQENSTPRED
T1 sequence (P09871 16-437 limits assumed): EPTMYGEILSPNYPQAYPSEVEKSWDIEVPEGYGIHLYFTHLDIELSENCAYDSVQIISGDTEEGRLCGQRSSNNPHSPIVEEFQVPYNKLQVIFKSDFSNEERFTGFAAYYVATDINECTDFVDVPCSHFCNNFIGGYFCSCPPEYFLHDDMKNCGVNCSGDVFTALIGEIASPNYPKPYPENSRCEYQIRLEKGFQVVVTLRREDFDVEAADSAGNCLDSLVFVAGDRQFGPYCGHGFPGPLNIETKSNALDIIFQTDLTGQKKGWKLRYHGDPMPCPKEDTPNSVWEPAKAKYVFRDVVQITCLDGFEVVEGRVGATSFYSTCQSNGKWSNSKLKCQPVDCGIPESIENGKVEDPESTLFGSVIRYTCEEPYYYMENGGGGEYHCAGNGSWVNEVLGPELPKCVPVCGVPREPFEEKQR
Nature of the experiment: Test, Code 026 (C1 inhibitor). It is filed as biochemical. As to conditions: In Vitro; serial two-fold dilution assay, higher well number indicates higher activity. The source says:
(§1) This test measures the ability of activated human C1 to destroy fluid phase human C2 in the presence of C4 and appropriate dilutions of the test compound. An active inhibitor protects C2 from C1 and C4; (ii) Test, Code 035 (C3-C9 inhibitor). This test determines the ability of the late components of human complement (C3-C9 to lyse EAC 142 in the presence of appropriate dilutions of the test compound. An active inhibitor protects EAC 142 from lysis by human C3-C9; (ii) Test, Code 036 (C-Shunt inhibitor)-- In this test human erythrocytes rendered fragile are lysed in autologous serum via the shunt pathway activated by cobra venom factor in the presence of appropriate dilutions of the test compound. Inhibition of the shunt pathway results in failure of lysis; (iv) Forssman Vasculitis Test-- Here, the well known complement dependent lesion, Forssman vasculitis, is produced in guinea pigs by intradermal injection of rabbit anti-Forssman antiserum. The lesion is measured in terms of diameter, edema and hemorrhage and the extent to which a combined index of these is inhibited by prior intraperitoneal injection of the test compound at 200 mg/kg is then reported, unless otherwise stated; (v) Forssman Shock Test-- Lethal shock is produced in guinea pigs by an i.v. injection of anti-Forssman antiserum and the harmonic mean death time of treated guinea pigs is compared with that of simultaneous controls; (vi) Complement Level Reduction Test-- In this test, the above dosed guinea pigs, or other, are bled for serum and the complement level is determined in undiluted serum by the capillary tube method of U.S. Pat. No. 3,876,376 and compared to undosed control guinea pigs; and (vii) Cap 50 Test-- Here, appropriate amounts of the test compound are added to a pool of guinea pig serum in vitro, after which the undiluted serum capillary tube assay referred to above is run. The concentration of compound inhibiting 50% is reported.

Experiment [1] has as its system late components of human complement (C3-C9). Nature of the experiment: Test, Code 035 (C3-C9 inhibitor), lysis of EAC 142. As to conditions: In Vitro; serial two-fold dilution assay, higher well number indicates higher activity. It is filed as biochemical.
Description: as §1

For a further experiment, the system named is shunt pathway. Nature of the experiment: Test, Code 036 (C-Shunt inhibitor), lysis of fragile human erythrocytes in autologous serum, cobra venom factor. It is filed as biochemical. As to conditions: In Vitro; serial two-fold dilution assay, higher well number indicates higher activity.
Description: as §1

In a further experiment the test system is Forssman vasculitis. Nature of the experiment: Forssman Vasculitis Test. As to conditions: In Vivo; guinea pigs; inhibition of combined index of lesion diameter, edema and hemorrhage; prior intraperitoneal injection at 200 mg/kg.
Description: as §1

Experiment [2] relates to complement level in undiluted serum. Nature of the experiment: Complement Level Reduction Test. To be noted: In Vivo; serum of dosed guinea pigs compared to undosed controls, capillary tube method.
Description: as §1

`O=C(Nc1cccc(C(=O)Nc2ccc3c(S(=O)(=O)[O-])cccc3c2S(=O)(=O)[O-])c1)Nc1cccc(C(=O)Nc2ccc3c(S(=O)(=O)[O-])cccc3c2S(=O)(=O)[O-])c1.[Na+].[Na+].[Na+].[Na+]` [2,2'-[Ureylenebis(m-phenylenecarbonylimino)]di-1,5-naphthalenedisulfonic acid tetrasodium salt]: at activated human C1, the “026 (C1 inhibitor), activity in wells” value is listed as “NEG”. Besides, the “035 (C3-C9 inhibitor), activity in wells” value in experiment [1] was determined as 1 wells. The “036 (C-Shunt inhibitor), activity in wells” value (“036 (C-Shunt inhibitor)” below) with shunt pathway worked out at 1 wells. For the same compound, in the experiment on Forssman vasculitis, the Forssman was determined as 10. In addition, the “% Reduction Complement” value in experiment [2] was -18%.
As to `O=C(Nc1cccc(C(=O)Nc2ccc(S(=O)(=O)[O-])c3cccc(S(=O)(=O)[O-])c23)c1)Nc1cccc(C(=O)Nc2ccc(S(=O)(=O)[O-])c3cccc(S(=O)(=O)[O-])c23)c1.[Na+].[Na+].[Na+].[Na+]` [4,4'-[Ureylenebis(m-phenylenecarbonylimino)]di-1,5-naphthalenedisulfonic acid tetrasodium salt], the “026 (C1 inhibitor), activity in wells” value at activated human C1 is listed as 2 wells. The “035 (C3-C9 inhibitor), activity in wells” value in experiment [1] was “NEG”. For the same compound, the “036 (C-Shunt inhibitor)” value in the experiment with shunt pathway is given as “NEG”. Moreover, the Forssman in the experiment on Forssman vasculitis turned out to be 10. In experiment [2], the “% Reduction Complement” value is -18%.
As for `O=C(Nc1cccc(C(=O)Nc2cc(S(=O)(=O)[O-])cc3cc(S(=O)(=O)[O-])ccc23)c1)Nc1cccc(C(=O)Nc2cc(S(=O)(=O)[O-])cc3cc(S(=O)(=O)[O-])ccc23)c1.[Na+].[Na+].[Na+].[Na+]` [4,4'-[Ureylenebis(m-phenylenecarbonylimino)]di-2,7-naphthalenedisulfonic acid tetrasodium salt], the “026 (C1 inhibitor), activity in wells” value on activated human C1 is recorded as 3 wells. Besides, the “035 (C3-C9 inhibitor), activity in wells” value in experiment [1] is reported as “NEG”. Further, the “036 (C-Shunt inhibitor)” value in the experiment on shunt pathway is reported as “NEG”. Moreover, the Forssman in the experiment on Forssman vasculitis was found to be 0. Moreover, in experiment [2], the “% Reduction Complement” value is reported as “+4%”.
In the case of `O=C(Nc1ccc(C(=O)Nc2ccc(S(=O)(=O)[O-])c3cccc(S(=O)(=O)[O-])c23)cc1)Nc1ccc(C(=O)Nc2ccc(S(=O)(=O)[O-])c3cccc(S(=O)(=O)[O-])c23)cc1.[Na+].[Na+].[Na+].[Na+]` [4,4'-[Ureylenebis(p-phenylenecarbonylimino)]di-1,5-naphthalenedisulfonic acid tetrasodium salt], the “026 (C1 inhibitor), activity in wells” value at activated human C1 is recorded as “NEG”. Moreover, the “035 (C3-C9 inhibitor), activity in wells” value in experiment [1] was “NEG”. Further, the “036 (C-Shunt inhibitor)” value in the experiment on shunt pathway is “NEG”. Moreover, the Forssman with Forssman vasculitis amounted to 12. Moreover, in experiment [2], the “% Reduction Complement” value is recorded as “+58%”.
For `O=C(Nc1cccc(C(=O)Nc2ccc3cc(S(=O)(=O)[O-])cc(S(=O)(=O)[O-])c3c2)c1)Nc1cccc(C(=O)Nc2ccc3cc(S(=O)(=O)[O-])cc(S(=O)(=O)[O-])c3c2)c1.[Na+].[Na+].[Na+].[Na+]` [7,7'-[Ureylenebis(m-phenylenecarbonylimino)]di-1,3-naphthalenedisulfonic acid tetrasodium salt], the “026 (C1 inhibitor), activity in wells” value on activated human C1 is given as 3 wells. In experiment [1], the “035 (C3-C9 inhibitor), activity in wells” value is 1 wells. Moreover, the “036 (C-Shunt inhibitor)” value with shunt pathway was 1 wells. The Forssman in the experiment with Forssman vasculitis is recorded as 8. Also, the “% Reduction Complement” value in experiment [2] is -33%.
